According to PMC5523311, “Synergistic Uric Acid-Lowering Effects of the Combination of Chrysanthemum indicum Linne Flower and Cinnamomum cassia (L.) J. Persl Bark Extracts” (Evidence-based Complementary and Alternative Medicine : eCAM, 2017):
In brackets after ≈: the same amount, converted by molar mass.

Experiments:
[1] = molecular target: T1, xanthine oxidase from bovine milk (Bos taurus, UniProt P80457); experiment: In vitro XOD inhibition assay (uric acid formation at 295 nm); type: biochemical; conditions: for IC50 XOD activity / IC50: mean of three experiments
T1 construct: xanthine oxidase from bovine milk (0.09 units/mg solid); purchased Sigma-Aldrich (St. Louis, MO, USA); host or cells: bovine milk
T1 sequence (P80457 whole entry): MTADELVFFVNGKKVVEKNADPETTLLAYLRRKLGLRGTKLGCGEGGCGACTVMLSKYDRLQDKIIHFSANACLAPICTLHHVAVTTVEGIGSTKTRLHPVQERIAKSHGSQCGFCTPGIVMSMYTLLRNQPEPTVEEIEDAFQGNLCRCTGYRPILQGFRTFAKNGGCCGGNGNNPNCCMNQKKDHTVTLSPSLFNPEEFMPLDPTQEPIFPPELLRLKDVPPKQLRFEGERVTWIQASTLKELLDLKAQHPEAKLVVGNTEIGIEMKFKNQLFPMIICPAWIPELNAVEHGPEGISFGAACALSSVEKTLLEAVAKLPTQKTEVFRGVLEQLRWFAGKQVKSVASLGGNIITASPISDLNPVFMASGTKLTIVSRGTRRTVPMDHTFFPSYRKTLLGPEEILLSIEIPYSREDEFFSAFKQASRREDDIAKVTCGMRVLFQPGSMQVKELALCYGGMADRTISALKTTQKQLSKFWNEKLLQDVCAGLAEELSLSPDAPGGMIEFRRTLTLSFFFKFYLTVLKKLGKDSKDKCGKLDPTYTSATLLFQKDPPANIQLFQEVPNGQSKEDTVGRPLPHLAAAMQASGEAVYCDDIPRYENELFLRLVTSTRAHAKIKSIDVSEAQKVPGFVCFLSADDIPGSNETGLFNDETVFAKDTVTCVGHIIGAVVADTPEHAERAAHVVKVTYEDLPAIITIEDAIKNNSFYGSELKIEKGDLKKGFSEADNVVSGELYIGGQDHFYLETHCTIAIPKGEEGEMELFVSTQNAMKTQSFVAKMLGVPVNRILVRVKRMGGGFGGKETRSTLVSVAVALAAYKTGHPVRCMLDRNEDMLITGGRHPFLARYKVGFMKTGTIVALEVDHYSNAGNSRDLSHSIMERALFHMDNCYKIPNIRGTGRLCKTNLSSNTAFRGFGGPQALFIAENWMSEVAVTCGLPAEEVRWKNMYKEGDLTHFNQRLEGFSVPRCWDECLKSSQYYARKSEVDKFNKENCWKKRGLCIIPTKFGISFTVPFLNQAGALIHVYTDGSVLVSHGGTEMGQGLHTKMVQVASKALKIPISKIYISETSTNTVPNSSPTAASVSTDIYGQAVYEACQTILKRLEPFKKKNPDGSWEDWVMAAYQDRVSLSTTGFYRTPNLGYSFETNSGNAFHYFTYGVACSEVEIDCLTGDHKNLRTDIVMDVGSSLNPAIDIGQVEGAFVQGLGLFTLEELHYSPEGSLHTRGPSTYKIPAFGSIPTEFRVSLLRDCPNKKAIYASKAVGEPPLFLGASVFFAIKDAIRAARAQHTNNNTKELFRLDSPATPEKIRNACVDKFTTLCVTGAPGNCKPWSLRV

[2] = test system: PO-induced hyperuricemic rats; experiment: Serum uric acid levels in PO-induced hyperuricemic rats; type: in vivo, rat; conditions: 10 mg/kg oral
Procedure: (§1) For hyperuricemia induction, the uricase inhibitor potassium oxonate (PO) was administered as previously described, with slight modifications. For the experiment regarding the effects of CF, CB, and various CC mixtures, the rats were divided into the following 10 groups (n = 8/group) based on body weight: (1) a normal control group (NC), (2) a hyperuricemia control group (PO), (3) a PO + CF group, (4) a PO + CB group, (5) a PO + CC11 group, (6) a PO + CC12 group, (7) a PO + CC14 group, (8) a PO + CC21 group, (9) a PO + CC41 group, and (10) a PO + AP group. […]
(§2) Urine samples were collected during 2 h after the final administration experiment and centrifuged (3000g, 10 min, 4°C) to remove particulate contaminants, and the supernatants were stored at −80°C until analysis. […] Serum and urine uric acid (SUA and UUA, resp.) levels were determined by an enzymatic-colorimetric method using commercial assay kits (Biovision, USA) according to manufacturer's protocols. Serum and urine creatinine levels were analyzed by an autoanalyzer (Hitachi-7020, Hitachi Medical, Japan). Fractional excretion of uric acid (FEUA) was calculated by the formula FEUA (%) = (urine uric acid levels [mg/dl] × Serum Creatinine levels [mg/dl])/(serum uric acid levels [mg/dl] × urine creatinine levels [mg/dl]) × 100.

normal rats = experiment: Serum uric acid levels in normal rats; type: in vivo, rat; conditions: 10 mg/kg oral, Figure 1(b)
Procedure: The rats were randomized into the following 9 groups (n = 8/group) based on body weight: (1) a normal control group (NC), (2) a CF group, (3) a CB group, (4) a CC11 group, (5) a CC12 group, (6) a CC14 group, (7) a CC21 group, (8) a CC41 group, and (9) an AP group. The rats of NC group were treated with vehicle (0.5% CMC solution). CF, CB, and various CC mixtures in 0.5% CMC solution were given to the rats via oral gavage at a dose of 200 mg/kg. Allopurinol in 0.5% CMC solution was administered at a dose of 10 mg/kg.
as §2, with “analysis. Blood samples were collected via cardiac puncture under anesthesia 2 h after urine collection following PO injection.” for “analysis.”

[3] = test system: PO-induced hyperuricemic rats; experiment: Urine uric acid, FEUA and creatinine in PO-induced hyperuricemic rats; type: in vivo, rat; conditions: 10 mg/kg oral
Procedure: as §1, §2

[4] = test system: PO-induced hyperuricemic mice; parameters: method as in Wang et al. [23] and Meng et al. [32]; conditions: ref Wang et al. [23] and Meng et al. [32]; cited from earlier work
[5] = read-out: % inhibition of XOD activity

SMILES | % inhibition of XOD activity ([1]; 62.5 μg/ml) [%] | % inhibition of XOD activity ([1]; 125 μg/ml) [%] | % inhibition of XOD activity ([1]; 250 μg/ml) [%] | IC50 XOD activity [1] [µg/mL] | inhibition at 62.5 µg/mL ([1]; 62.5 μg/ml) [%] | inhibition at 125 µg/mL ([1]; 125 μg/ml) [%] | inhibition at 250 µg/mL ([1]; 250 μg/ml) [%] | IC50 [1] [µM] | further results
Oc1ncnc2[nH]ncc12 [Allopurinol, allopurinol] | – | – | – | – | – | – | – | – | inhibition at 6.25 µg/mL [1, 5]: 51.7 ± 0.7%; inhibition at 12.5 µg/mL [1, 5]: 71.7 ± 0.1%; inhibition at 25 µg/mL [1, 5]: 80.3 ± 0.3%; Reduction of serum uric acid levels compared with the PO group ([2]; PO-induced hyperuricemic rats, Figure 1(a)): 75%; Reduction of serum uric acid levels ([2]; dose-dependence experiment, Figure 2(a)): 66%; Decrease of serum uric acid levels compared with the NC group (normal rats): 70%; Effect on urine uric acid levels ([3]; Figure 2(b)): did not affect; Effect on FEUA ([3]; Figure 2(c), p < 0.05): increased the FEUA
O=C/C=C/c1ccccc1 [Cinnamaldehyde, cinnamaldehyde] | – | – | – | – | 101 ± 3.2 | 126 ± 5.6 | 119 ± 35.1 | 331 | Effect on serum uric acid levels by inhibiting XOD activity [4]: significantly decreased
O=C(O)/C=C/c1ccccc1 [trans-Cinnamic acid, trans-cinnamic acid] | 54.3 ± 0.7 | 96.7 ± 1.9 | 114.9 ± 0.4 | 58.8 (≈ 397 µM) | – | – | – | – | –

Second part, led by results:

% inhibition of XOD activity ([1]; 62.5 μg/ml) [%] | % inhibition of XOD activity ([1]; 125 μg/ml) [%] | % inhibition of XOD activity ([1]; 250 μg/ml) [%] | IC50 XOD activity [1] [µg/mL] | inhibition at 62.5 µg/mL ([1]; 62.5 μg/ml) [%] | inhibition at 125 µg/mL ([1]; 125 μg/ml) [%] | inhibition at 250 µg/mL ([1]; 250 μg/ml) [%] | IC50 [1] [µM] | SMILES | further results
21.0 ± 1.5 | 104.6 ± 2.6 | 85.0 ± 1.2 | 79.7 (≈ 154 µM) | – | – | – | – | O=C(/C=C/c1ccc(O)c(O)c1)O[C@@H]1[C@H](O)C[C@@](O)(C(=O)O)C[C@H]1OC(=O)/C=C/c1ccc(O)c(O)c1 (stereo in doubt) [3,4-Dicaffeoylquinic acid, 3,4-dicaffeoylquinic acid] | –
– | – | – | – | 24 ± 1.7 | 63.6 ± 1.5 | 107.3 ± 0.6 | 293 | O=C(/C=C/c1ccc(O)c(O)c1)O[C@@H]1C[C@](O)(C(=O)O)C[C@@H](O)[C@H]1O [Chlorogenic acid] | Effect on serum uric acid levels by inhibiting XOD activity [4]: significantly decreased
– | – | – | – | 22.8 ± 0.1 | 75.1 ± 1 | 103.9 ± 0.7 | 651 | O=c1ccc2ccccc2o1 [Coumarin, coumarin] | –
104.7 ± 0.2 | 101.2 ± 0.2 | 100.0 ± 0.4 | 25.7 (≈ 158 µM) | – | – | – | – | COc1ccccc1C=CC=O [o-Methoxycinnamaldehyde, o-methoxycinnamaldehyde] | –
